Source: publication PMC5814735, “Lithium‐Catalyzed Thiol Alkylation with Tertiary and Secondary Alcohols: Synthesis of 3‐Sulfanyl‐Oxetanes as Bioisosteres” (Chemistry (Weinheim an Der Bergstrasse, Germany), 2017)

Legend:
[1] = eLogD, distribution coefficient (LogD) measured by HPLC; type: physicochemical
Experimental: (§1) In the context of drug discovery, the distribution coefficient of a compound strongly affects how effectively the drug can reach its intended target, as well as efficacy and pharmacokinetic properties. […] To understand the effect of oxetane sulfides on this key parameter, LogD was measured for compounds 21, 2 d, and 17 d. Replacing the thioester functionality with the oxetane sulfide had the positive effect of lowering the LogD by approximately 1 Log unit (Figure 2).
(§2) Figure 2 Comparison of physicochemical parameters. eLogD=distribution coefficient (LogD) measured by HPLC. HLM=Clearance in liver microsomes; RRCK=Cell membrane permeability. TEXT PRINTED IN THE PICTURE: 21: eLogD 4.7 | 2d: eLogD 3.8 | 17d: eLogD 2.1 | 20: HLM: 7.0 μL/min/mg; RRCK: 0.1 10^-6 cm/s | 22: HLM: 7.0 μL/min/mg; RRCK: 1.3 10^-6 cm/s DOUBTS OF THE COPYIST ABOUT THIS PICTURE: 2d, eLogD: 3.8 or 3.6 (small print) / 22, RRCK: 1.3 or 1.5 or 1.8 (small print) / 20 and 22, RRCK: exponent -6 is printed very small and could be -5 or -8

[2] = test system: RRCK; assay: RRCK cell membrane permeability; type: in vitro ADME; conditions: 20 compared with methane analogue 22, in words
Experimental: as §1, §2

[3] = RRCK cell membrane permeability; type: in vitro ADME; conditions: dog, MDCK
Experimental: as §1, §2

[4] = HLM, clearance in liver microsomes; type: in vitro ADME, human; conditions: for clearance profile by human liver microsomes, comparison: 20 compared with 22, in words; for microsomal CLint: human, human liver microsomes
Experimental: as §1, §2

chromatographic logD [1] | melting point | Papp [3] | clearance profile by human liver microsomes, comparison [4] | microsomal CLint [4] | SMILES | cell permeability compared with analogue [2]
3.8 | 113 to 116 °C |  |  |  | COc1ccc(SC2(c3ccc(OC)cc3)COC2)cc1 [2d] | 
 | 46 to 48 °C |  |  |  | c1ccc(SC2(c3ccccc3)CCC2)cc1 [13c] | 
2.1 | 158 to 160 °C |  |  |  | COc1ccc(C2(S(=O)(=O)c3ccc(OC)cc3)COC2)cc1 [17d] | 
 |  | 0.1 ×10⁻⁶ cm/s | determined to be the same | 7 µL/min/mg | COc1ccc(C2(SCC(N)C(=O)O)COC2)cc1 (stereo not shown) [compound 20] | slightly lower cell permeability than the corresponding methane analogue 22
4.7 |  |  |  |  | COc1ccc(SC(=O)c2ccc(OC)cc2)cc1 [compound 21] | 
 |  | 1.3 ×10⁻⁶ cm/s | determined to be the same | 7 µL/min/mg | COc1ccc(CSCC(N)C(=O)O)cc1 (stereo not shown) [compound 22] | 
